According to the CheMixHub viscosity set:
Several values for one entry are separate records, joined by “and”; a condition that tells them apart may be missing. Equal entries are not always repeated.

Test: xn = mol fraction of the nth substance listed

Cc1cc(C)cc(C)c1 + CCCCCCCCCCO
viscosity [mPa·s], 101 kPa
Conditions | 298.15 K | 308.15 K
x1 = 0.0752 | 9.427 | 6.401
x1 = 0.1354 | 7.818 | 5.334
x1 = 0.2083 | 6.204 | 4.256
x1 = 0.265 | 5.179 | 3.572
x1 = 0.3292 | 4.194 | 2.936
x1 = 0.3894 | 3.456 | 2.445
x1 = 0.4633 | 2.728 | 1.942
x1 = 0.5303 | 2.202 | 1.595
x1 = 0.6033 | 1.754 | 1.279
x1 = 0.6643 | 1.458 | 1.084
x1 = 0.7341 | 1.195 | 0.901
x1 = 0.7998 | 1.002 | 0.768
x1 = 0.8724 | 0.838 | 0.669
x1 = 0.9442 | 0.728 | 0.606

O=C(Cc1ccccc1)c1ccccc1 + CCCCCOC(C)=O
298.15 K, 101 kPa
Conditions | viscosity [mPa·s]
x1 = 0.0268 | 0.8294
x1 = 0.0344 | 0.849

O=S=O + CCCCN(CCCC)CCCC
303.15 K, 100 kPa
Conditions | viscosity [mPa·s]
x1 = 0.21 | 1.4
x1 = 0.35 | 3.2
x1 = 0.45 | 12.9

O=C1CCCN1 + CCCCO
Conditions | viscosity [mPa·s]
293.15 K, 101 kPa, x1 = 0.8554 | 10.75

Cc1cc(C)cc(C)c1 + CCCO
293.15 K, 101 kPa
Conditions | viscosity [mPa·s]
x2 = 0.2 | 0.748
x2 = 0.4 | 0.855
x2 = 0.6 | 1.075
x2 = 0.8 | 1.419

CC=CC(=O)OCC + CCO
viscosity [mPa·s], 101 kPa
Conditions | x1 = 0.0991 | x1 = 0.1985 | x1 = 0.2994 | x1 = 0.3961 | x1 = 0.5006 | x1 = 0.6 | x1 = 0.6968 | x1 = 0.7816 | x1 = 0.8996
293.15 K | 1.026 | 0.929 | 0.9257 | 0.9219 | 0.878 | 0.8293 | 0.8016 | 0.8351 | 0.8122
298.15 K | 0.9334 | 0.8523 | 0.8465 | 0.8404 | 0.8061 | 0.7663 | 0.7402 | 0.7648 | 0.7535
303.15 K | 0.8498 | 0.7812 | 0.7751 | 0.7739 | 0.7411 | 0.7061 | 0.6855 | 0.7052 | 0.7
313.15 K | 0.7166 | 0.6615 | 0.6607 | 0.6588 | 0.6372 | 0.6091 | 0.5958 | 0.6134 | 0.6108
323.15 K | 0.6156 | 0.5747 | 0.5702 | 0.5686 | 0.5537 | 0.5363 | 0.5284 | 0.5414 | 0.5401

Cc1cc(C)cc(C)c1 + CCO
293.15 K, 101 kPa
Conditions | viscosity [mPa·s]
x2 = 0.2 | 0.718
x2 = 0.4 | 0.764
x2 = 0.6 | 0.854
x2 = 0.8 | 0.983

O=S=O + CCOC(C)=O
298.15 K, 101 kPa
Conditions | viscosity [mPa·s]
x1 = 0.115 | 0.4299
x1 = 0.236 | 0.4289
x1 = 0.35 | 0.4239

O=S=O + CCOCC
298.15 K, 101 kPa
Conditions | viscosity [mPa·s]
x1 = 0.0574 | 0.2303
x1 = 0.0951 | 0.2353
x1 = 0.1329 | 0.24
x1 = 0.1607 | 0.2443

O=C1CCCN1 + CN1CCCC1=O
298.15 K, 100 kPa
Conditions | viscosity [mPa·s]
x1 = 0.0188 | 1.759
x1 = 0.0298 | 1.79
x1 = 0.0397 | 1.827
x1 = 0.0507 | 1.835
x1 = 0.065 | 1.874
x1 = 0.0793 | 1.963
x1 = 0.097 | 1.992
x1 = 0.1004 | 1.999
x1 = 0.1498 | 2.168
x1 = 0.1993 | 2.356
x1 = 0.2495 | 2.568
x1 = 0.3001 | 2.808
x1 = 0.3497 | 3.067
x1 = 0.3986 | 3.361
x1 = 0.4492 | 3.704
x1 = 0.4994 | 4.091
x1 = 0.5493 | 4.53
x1 = 0.5989 | 5.022
x1 = 0.6497 | 5.608
x1 = 0.6992 | 6.263
x1 = 0.7487 | 7.017
x1 = 0.7986 | 7.914
x1 = 0.8494 | 8.966
x1 = 0.8984 | 10.14
x1 = 0.918 | 10.67
x1 = 0.9287 | 10.99
x1 = 0.9394 | 11.33
x1 = 0.959 | 12.01
x1 = 0.9695 | 12.29
x1 = 0.9798 | 12.64
x2 = 0.0111 | 12.96

OCCCCO + CN1CCCC1=O
308.15 K, 101 kPa
Conditions | viscosity [mPa·s]
x1 = 0.0277 | 1.784
x1 = 0.0556 | 1.943
x1 = 0.1011 | 2.235
x1 = 0.1982 | 3.025
x1 = 0.2982 | 4.088
x1 = 0.4038 | 5.57
x1 = 0.4943 | 7.06
x1 = 0.6011 | 11.08
x1 = 0.7044 | 16.24
x1 = 0.7935 | 21.61
x1 = 0.8996 | 33.43
x1 = 0.946 | 39.29
x1 = 0.965 | 41.43

CCCCCCCC/C=C\CCCCCCCC(=O)O + CN1CCC[C@H]1c1cccnc1
viscosity [mPa·s], 101 kPa
Conditions | 298.15 K | 323.15 K
x2 = 0.1049 | 74.27 | 22.13
x2 = 0.1989 | 107 | 29.28
x2 = 0.2016 | 108 | 29.56
x2 = 0.2132 | 110.3 | 30.03
x2 = 0.2175 | 110.4 | 30.15
x2 = 0.2346 | 112.3 | 30.48
x2 = 0.2482 | 110.3 | 30.13
x2 = 0.2489 | 110 | 30.12
x2 = 0.2601 | 109.3 | 30.1
x2 = 0.2826 | 105.3 | 28.77
x2 = 0.298 | 102.5 | 28.02
x2 = 0.4102 | 73.48 | 22.19
x2 = 0.4841 | 51.84 | 17.6
x2 = 0.5948 | 34.19 | 12.35
x2 = 0.7031 | 20.12 | 8.136
x2 = 0.7939 | 11.7 | 5.197
x2 = 0.8975 | 7.276 | 3.432

OCCCCO + CN(C)C=O
308.15 K, 101 kPa
Conditions | viscosity [mPa·s]
x1 = 0.0565 | 0.762
x1 = 0.101 | 0.904
x1 = 0.1892 | 1.222
x1 = 0.2806 | 1.761
x1 = 0.3915 | 2.578
x1 = 0.4722 | 3.596
x1 = 0.5803 | 6.998
x1 = 0.6682 | 10.85
x1 = 0.7755 | 17.92
x1 = 0.8845 | 28.4
x1 = 0.9487 | 37.31

Cc1cc(C)cc(C)c1 + CO
293.15 K, 101 kPa
Conditions | viscosity [mPa·s]
x2 = 0.2 | 0.696
x2 = 0.4 | 0.699
x2 = 0.5 | 0.715
x2 = 0.6 | 0.721
x2 = 0.8 | 0.683

O=C1CCCN1 + CO
298.15 K, 100 kPa
Conditions | viscosity
x1 = 0.0098 | 0.568 mPa·s
x1 = 0.0194 | 0.587 mPa·s
x1 = 0.0295 | 0.641 mPa·s
x1 = 0.0392 | 0.657 mPa·s
x1 = 0.0499 | 0.687 mPa·s
x1 = 0.059 | 0.671 mPa·s
x1 = 0.0688 | 0.691 mPa·s
x1 = 0.078 | 0.708 mPa·s
x1 = 0.0883 | 0.755 mPa·s
x1 = 0.0973 | 0.759 mPa·s
x1 = 0.0988 | 0.906 mPa·s
x1 = 0.2022 | 1.133 mPa·s
x1 = 0.2963 | 1.432 mPa·s
x1 = 0.3984 | 1.937 mPa·s
x1 = 0.4592 | 2.346 mPa·s
x1 = 0.5694 | 3.304 mPa·s
x1 = 0.6844 | 4.749 mPa·s
x1 = 0.7834 | 6.52 mPa·s
x1 = 0.8988 | 9.529 mPa·s and 9.56 mPa·s
x1 = 0.9076 | 9.83 mPa·s
x1 = 0.9213 | 10.34 mPa·s
x1 = 0.9308 | 10.66 mPa·s
x1 = 0.9383 | 10.97 mPa·s
x1 = 0.9496 | 11.39 mPa·s
x1 = 0.9615 | 11.92 mPa·s
x1 = 0.9741 | 12.35 mPa·s
x2 = 0.0101 | 13.03 mPa·s
